Common to all, as to format: cell-based
One assay deals with T1, androgen receptor (AR) (Homo sapiens, UniProt P10275, T878A).
T1 construct: endogenous in cells; host or cells: LNCAP
T1 sequence (P10275 1-920 T878A): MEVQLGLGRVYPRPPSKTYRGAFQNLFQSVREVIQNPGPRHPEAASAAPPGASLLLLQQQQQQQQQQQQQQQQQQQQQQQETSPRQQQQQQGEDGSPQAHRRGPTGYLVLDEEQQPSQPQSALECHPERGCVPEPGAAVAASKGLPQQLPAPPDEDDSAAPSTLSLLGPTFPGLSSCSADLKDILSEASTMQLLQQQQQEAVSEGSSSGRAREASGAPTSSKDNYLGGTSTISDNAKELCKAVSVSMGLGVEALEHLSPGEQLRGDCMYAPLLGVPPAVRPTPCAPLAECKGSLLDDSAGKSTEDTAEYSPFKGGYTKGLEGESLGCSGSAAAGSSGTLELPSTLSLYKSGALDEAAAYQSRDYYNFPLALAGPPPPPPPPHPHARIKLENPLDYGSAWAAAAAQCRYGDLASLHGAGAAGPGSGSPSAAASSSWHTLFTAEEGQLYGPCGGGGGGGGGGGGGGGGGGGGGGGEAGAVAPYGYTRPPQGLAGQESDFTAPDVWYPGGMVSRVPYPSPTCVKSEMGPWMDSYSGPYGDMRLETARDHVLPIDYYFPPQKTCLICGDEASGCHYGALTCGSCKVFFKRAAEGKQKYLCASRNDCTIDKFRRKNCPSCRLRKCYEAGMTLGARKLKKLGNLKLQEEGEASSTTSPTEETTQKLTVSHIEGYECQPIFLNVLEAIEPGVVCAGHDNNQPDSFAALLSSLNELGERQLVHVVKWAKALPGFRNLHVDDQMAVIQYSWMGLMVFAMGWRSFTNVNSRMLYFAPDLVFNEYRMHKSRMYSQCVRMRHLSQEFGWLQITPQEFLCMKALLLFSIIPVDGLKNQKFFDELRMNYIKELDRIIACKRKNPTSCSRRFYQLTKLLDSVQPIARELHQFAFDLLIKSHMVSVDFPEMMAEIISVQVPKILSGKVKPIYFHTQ
Description: AR degradation activity in LNCAP cells (Western blot). Conditions: LNCAP cell line, 24 hours after administration; DC50 = concentration for 50% target protein degradation. How it is done: LNCAP, VCAP and 22Rv1 cells were plated in 24-well plates at 1.5×10E5 cells/well in the RPMI growth medium containing 10% FBS and 1% Penicillin Streptomycin, and then incubated at 37° C. overnight. The following day, the test compound was administered to the cells by using 1000× compound stock solution prepared in DMSO at various concentrations. After administration of the compound, the cells were then incubated at 37° C. for 24 hours. Upon completion, the cells were washed with PBS and protein was collected in Laemmli sample buffer (1×; VWR International). Proteins in cell lysate were separated by SDS-PAGE and transferred to Odyssey nitrocellulose membranes (Licor) with iblot® dry blotting transfer system (ThermoFisher). Nonspecific binding was blocked by incubating membranes with Intercept Blocking Buffer (Licor) for 1 hour at room temperature with gentle shaking. The membranes were then incubated overnight at 4° C. with Primary antibodies rabbit anti-AR (1:1,000, Cell Signaling, 5153) and mouse anti-GAPDH (1:5,000, Santa Cruz Biotechnology, sc-47724) diluted in Intercept Blocking Buffer containing 0.1% Tween 20. After washing 3 times with TBS-T, the membranes were incubated with IRDye® […] goat anti-mouse IgG (1:20,000, Licor) or IRDye®8000W goat anti-rabbit IgG (1:20,000, Licor) for 1 hour. After TBS-T washes, membranes were rinsed in TBS and scanned on Odyssey® CLx Imaging System (Licor). The bands were quantified using Image Studio™ Software (Licor).
(§1) Table 4 summarizes the androgen receptor (AR) degradative activity and cell growth inhibition of exemplary compounds in (a) LNCAP, VCAP, and 22Rv1 cell lines 24 hours after administration of the compound; (b) RAMOS cell line 3 days after administration of the compound; and (c) VCAP cell line 6 days after administration of the compound. DC50: compound concentration needed for 50% target protein degradation.

The next assay deals with VCAP cells. Kind of assay: Cell growth inhibition for VCAP cells (CellTiter-Glo). The conditions noted are these: Homo sapiens, 144 h; VCAP cell line, 6 days after administration, 0.1 nM R1881, charcoal-stripped FBS. How it is done: VCAP cells (ATCC) were seeded in 96-well plates at 3000 cell/well in 80 μl of DMEM growth medium containing 10% charcoal-stripped FBS (CSS) and 1% Penicillin/Streptomycin. Cells were incubated at 37° C. overnight. The following day, the test compound was administered to the cells by using 10× compound stock solution prepared in growth medium at various concentrations. Four hours later, 0.1 nM R1881 (Sigma) was administered to the cells by using 10× compound stock solution prepared in growth medium. 0.1% DMSO with or without 0.1 nM R1881 was administered as control. Cells were then incubated at 37° C. for 6 days. Before CelTiter-Glo assay, the plates were equilibrated at room temperature for approximately 10 minutes. 100 ul of CellTiter-Glo® Reagent (Promega) was added to each well. The plates were then incubated at room temperature for 10 minutes and luminescence was recorded by EnSpire plate reader (PerkinElmer).
as §1

The test system of a further assay is RAMOS cells. Description: Cell growth inhibition for Ramos cells (CellTiter-Glo). Conditions: Homo sapiens, 72 h; RAMOS cell line, 3 days after administration. How it is done: RAMOS cells (ATCC) were seeded in 96-well plates at 16,000 cell/well in 90 μl of RPMI growth medium containing 10% Heat-Inactivated Fetal Bovine Serum and 1% Penicillin/Streptomycin. The test compound was administered to the cells by using 10× compound stock solution prepared in growth medium at various concentrations. After administration of the compound, cells were then incubated at 37° C. for 3 days. Before CellTiter-Glo assay, the plates were equilibrated at room temperature for approximately 10 minutes. 100 ul of CellTiter-Glo® Reagent (Promega) was added to each well. The plates were then incubated at room temperature for 10 minutes and luminescence was recorded by EnSpire plate reader (PerkinElmer).
as §1

Each structure is given as a SMILES string.

For `CN(CC1CCN(c2ccc(C(=O)NC3C(C)(C)C(Oc4ccc(C#N)c5ncccc45)C3(C)C)cn2)CC1)C1CC(Oc2ccc3c(c2)C(=O)N(C2CCC(=O)NC2=O)C3=O)C1` (stereo not drawn) [Compound 2-9, N-((1,3-trans)-3-((8-cyanoquinolin-5-yl)oxy)-2,2,4,4-tetramethylcyclobutyl)-6-(4-((((1r,3r)-3-((2-(2,6-dioxopiperidin-3-yl)-1,3-dioxoisoindolin-5-yl)oxy)cyclobutyl)(methyl)amino)methyl)piperidin-1-yl)nicotinamide], it took 0.2 nM to reach half-maximal degradation on androgen receptor (AR) (DC50). Still for that read-out and setting: under `CC(C)N(CC1CCN(c2ccc(C(=O)NC3C(C)(C)C(Oc4ccc(C#N)c5ncccc45)C3(C)C)cn2)CC1)C1CC(Oc2ccc3c(c2)C(=O)N(C2CCC(=O)NC2=O)C3=O)C1` (stereo not drawn) [Compound 2-11, N-((1,3-trans)-3-((8-cyanoquinolin-5-yl)oxy)-2,2,4,4-tetramethylcyclobutyl)-6-(4-((((1r,3r)-3-((2-(2,6-dioxopiperidin-3-yl)-1,3-dioxoisoindolin-5-yl)oxy)cyclobutyl)(isopropyl)amino)methyl)piperidin-1-yl)nicotinamide] stands 2.8 nM. On to `CC1(C)[C@H](NC(=O)c2cnc(N3CCC(CN4CCN(c5ccc6c(c5)CN([C@H]5CCC(=O)NC5=O)C6=O)CC4)CC3)nc2)C(C)(C)[C@H]1Oc1ccc(C#N)c2ncccc12` [Compound 2-30], for which, on androgen receptor (AR), the DC50 came to 0.2 nM. Also, the results for the 50% growth inhibitory concentration (GI50) in the assay with VCAP cells and in the assay with RAMOS cells were 11.5 nM and more than 3000 nM, respectively. For `CC1(C)C(NC(=O)c2ccc(N3CCC(CN4CCN(c5ccc6c(c5)CN([C@H]5CCC(=O)NC5=O)C6=O)CC4)CC3)nn2)C(C)(C)C1Oc1ccc(C#N)c2ncccc12` (stereo partly drawn) [Compound 2-31, N-((1,3-trans)-3-((8-cyanoquinolin-5-yl)oxy)-2,2,4,4-tetramethylcyclobutyl)-6-(4-((4-(2-((S)-2,6-dioxopiperidin-3-yl)-1-oxoisoindolin-5-yl)piperazin-1-yl)methyl)piperidin-1-yl)pyridazine-3-carboxamide], in that order: 0.6 nM, 9.2 nM and more than 3000 nM. In the case of `CC1(C)C(NC(=O)c2ccc(N3CCC(CN4CCN(c5cc6c(cc5F)C(=O)N(C5CCC(=O)NC5=O)C6=O)CC4)CC3)nn2)C(C)(C)C1Oc1ccc(C#N)c2ncccc12` (stereo not drawn) [Compound 2-35, N-((1,3-trans)-3-((8-cyanoquinolin-5-yl)oxy)-2,2,4,4-tetramethylcyclobutyl)-6-(4-((4-(2-(2,6-dioxopiperidin-3-yl)-6-fluoro-1,3-dioxoisoindolin-5-yl)piperazin-1-yl)methyl)piperidin-1-yl)pyridazine-3-carboxamide], half-maximal degradation on androgen receptor (AR) (DC50) was put at 0.4 nM.

On to `CC1(C)C(NC(=O)c2ccc(N3CCC(CN4CCN(c5cc6c(cc5F)C(=O)N(C5CCC(=O)NC5=O)C6=O)CC4)CC3)nc2)C(C)(C)C1Oc1ccc(C#N)c2ncccc12` (stereo not drawn) [Compound 2-36, N-((1,3-trans)-3-((8-cyanoquinolin-5-yl)oxy)-2,2,4,4-tetramethylcyclobutyl)-6-(4-((4-(2-(2,6-dioxopiperidin-3-yl)-6-fluoro-1,3-dioxoisoindolin-5-yl)piperazin-1-yl)methyl)piperidin-1-yl)nicotinamide], for which the DC50 at androgen receptor (AR) amounted to 1.4 nM. At androgen receptor (AR), `CC1(C)C(NC(=O)c2ccc(N3CCC(CN4CCN(c5cc6c(cc5F)C(=O)N(C5CCC(=O)NC5=O)C6=O)CC4)CC3)cc2)C(C)(C)C1Oc1ccc(C#N)c2ncccc12` (stereo not drawn) [Compound 2-47, N-((1,3-trans)-3-((8-cyanoquinolin-5-yl)oxy)-2,2,4,4-tetramethylcyclobutyl)-4-(4-((4-(2-(2,6-dioxopiperidin-3-yl)-6-fluoro-1,3-dioxoisoindolin-5-yl)piperazin-1-yl)methyl)piperidin-1-yl)benzamide] had a DC50 of 0.8 nM. The same measure, in the same setting: the value for `CC1(C)C(NC(=O)c2ccc(N3CCC(CN4CCN(c5cc6c(cc5F)C(=O)N(C5CCC(=O)NC5=O)C6=O)CC4)CC3)c(F)c2)C(C)(C)C1Oc1ccc(C#N)c2ncccc12` (stereo not drawn) [Compound 2-48, N-((1,3-trans))-3-((8-cyanoquinolin-5-yl)oxy)-2,2,4,4-tetramethylcyclobutyl)-4-(4-((4-(2-(2,6-dioxopiperidin-3-yl)-6-fluoro-1,3-dioxoisoindolin-5-yl)piperazin-1-yl)methyl)piperidin-1-yl)-3-fluorobenzamide] was 3.8 nM; that for `CC1(C)C(NC(=O)c2cnc(N3CCC(CN4CCN(c5cc6c(cc5F)C(=O)N(C5CCC(=O)NC5=O)C6=O)CC4)CC3)nc2)C(C)(C)C1Oc1ccc(C#N)c2ncccc12` (stereo not drawn) [Compound 2-50, N-((1,3-trans)-3-((8-cyanoquinolin-5-yl)oxy)-2,2,4,4-tetramethylcyclobutyl)-2-(4-((4-(2-(2,6-dioxopiperidin-3-yl)-6-fluoro-1,3-dioxoisoindolin-5-yl)piperazin-1-yl)methyl)piperidin-1-yl)pyrimidine-5-carboxamide] was 0.6 nM. Take `CC1(C)C(NC(=O)c2cnc(N3CCC(CN4CCN(c5cc6c(cc5F)C(=O)N(C5CCC(=O)NC5=O)C6=O)CC4)CC3)c(F)c2)C(C)(C)C1Oc1ccc(C#N)c2ncccc12` (stereo not drawn) [Compound 2-52, N-((1,3-trans)-3-((8-cyanoquinolin-5-yl)oxy)-2,2,4,4-tetramethylcyclobutyl)-6-(4-((4-(2-(2,6-dioxopiperidin-3-yl)-6-fluoro-1,3-dioxoisoindolin-5-yl)piperazin-1-yl)methyl)piperidin-1-yl)-5-fluoronicotinamide]: the DC50 at androgen receptor (AR) was found to be 1.3 nM. With `CC1(C)[C@H](NC(=O)c2ccc(N3CCC(CN4CCN(c5cc6c(cc5F)C(=O)N([C@H]5CCC(=O)NC5=O)C6)CC4)CC3)c(F)c2)C(C)(C)[C@H]1Oc1ccc(C#N)c2ncccc12` [Compound 2-53, N-((1,3-trans)-3-((8-cyanoquinolin-5-yl)oxy)-2,2,4,4-tetramethylcyclobutyl)-4-(4-((4-(2-((S)-2,6-dioxopiperidin-3-yl)-6-fluoro-1-oxoisoindolin-5-yl)piperazin-1-yl)methyl)piperidin-1-yl)-3-fluorobenzamide], the DC50 on androgen receptor (AR) amounted to 0.4 nM. This compound also registered a GI50 in the assay on VCAP cells of 11.9 nM.
